Measured values reported in US20030199578A1, “Naphthalene amides as potassium channel openers” (priority 2002, published 2003).

Experiments:
[1] = system: Landrace pig bladder strips; experiment: In vitro functional model: field-stimulated bladder tissue strips; details: dose dependent, concentration range 10^−9 to 10^−5 M, control agonist
Description: Compounds were evaluated for functional potassium channel opening activity using tissue strips obtained from Landrace pig bladders. Landrace pig bladders were obtained from female Landrace pigs of 9-30 kg. Landrace pigs were euthanized with an intraperitoneal injection of pentobarbital solution, Somlethal®, J. A. Webster Inc., Sterling Mass. The entire bladder was removed and immediately placed into Krebs Ringer bicarbonate solution (composition, mM: NaCl, 120; NaHCO3, 20; dextrose, 11; KCl, 4.7; CaCl2, 2.5; MgSO4, 1.5; KH2PO4, 1.2; K2EDTA, 0.01, equilibrated with 5% CO2/95% O2 pH 7.4 at 37° C.). Propranolol (0.004 mM) was included in all of the assays to block β-adrenoceptors. The trigonal and dome portions were discarded. Strips 3-5 mm wide and 20 mm long were prepared from the remaining tissue cut in a circular fashion. The mucosal layer was removed. One end was fixed to a stationary glass rod and the other to a Grass FT03 transducer at a basal preload of 1.0 gram. Two parallel platinum electrodes were included in the stationary glass rod to provide field stimulation of 0.05 Hz, 0.5 milli-seconds at 20 volts. […] The maximal efficacy of each compound (expressed as % relative to P1075) is reported. […] Agonist potencies were also expressed as an index relative to P1075. The index was calculated by dividing the ED50 for P1075 by the ED50 for the test agonist in a given tissue. […]

Compound	melting point [°C]	effect on stimulated twitch of bladder strips [1]
CC(=O)Nc1c(C(O)(C(F)(F)F)C(F)(F)F)cc(Cl)c2ccccc12 [Example 9, N-[4-Chloro-2-(2,2,2-trifluoro-1-hydroxy-1-trifluoromethyl-ethyl)-naphthalen-1-yl]-acetamide]	161 to 162	–
O=C(Nc1c(C(O)(C(F)(F)F)C(F)(F)F)ccc2ccccc12)c1ccno1 [Example 41, Isoxazole-5-carboxylic acid [2-(2,2,2-trifluoro-1-hydroxy-1-trifluoromethyl-ethyl)-naphthalen-1-yl]-amide]	162 to 164	–
CCC(C)(C)N=C(NC#N)Nc1cccnc1 [Example P1075]	–	completely eliminated the stimulated twitch
